Data taken from patent US4489091A, “Antilipemic and anti-inflammatory compositions containing sulfonate derivatives” (Taiho Pharmaceutical Company Limited, priority 1980, dated 1984).
pIC50: −log10 of the molar value. Read-outs that look alike come from different tables or passages of the source.

Assays:
chymotripsin = chymotripsin (Bos taurus, UniProt P00766); assay: Chymotripsin inhibiting activity; assay type: biochemical; settings: 0.5 h; compound 1×10^-4 mole, ATEE substrate, pH 8.0, 37° C.; read-out: Percent chymotripsin inhibition
Protocol: Chymotripsin (0.1 unit) serving as an enzyme solution is added to a specified quantity of buffer solution containing 0.1 mole of trishydrochloric acid (pH 8.0). To the mixture is further added a 50% ethanol solution of the compound of the invention so that the resulting mixture contains the compound in a concentration of 1×10^-4 mole. The mixture is reacted at 37° C. for 20 minutes.
On completion of the reaction, 10 micromoles of N-acetyl-L-thyrosine ethyl ester (ATEE) serving as a substrate is added to the mixture, and the resulting mixture is reacted at 37° C. for 30 minutes.
After the completion of the reaction, the amount of remaining ATEE is determined by the same hydroxamic acid method as above. The percent chymotripsin inhibition is given by [formula] wherein A is the amount of hydrolyzed esters in the reaction system not containing the compound of the invention, and B is the amount of hydrolyzed esters in the reaction system containing the present compound.

triglycerides = assay: Antilipemic effect: percent triglycerides inhibition in plasma of rats given an olive oil-cholesterol mixture; assay type: in vivo, male Wistar rats; settings: for TG (percent triglycerides inhibition), Table 3: dose not given; for inhibition in vivo at 100 mg/kg: read-out: Anti-lipemic effect, TG (percent triglycerides inhibition); for inhibition in vivo at 200 mg/kg: oral 200 mg/kg (asterisked values), read-out: Anti-lipemic effect, TG (percent triglycerides inhibition), asterisked
Procedure, shortened: (§1)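 Male Wistar rats, seven weeks old, 200 to 220 g, 5 per group, dosed orally at 100 or 200 mg/kg in olive oil-cholesterol mixture (15% cholesterol) at 10 ml/kg. Plasma triglycerides measured at 2 hours, total cholesterol at 8 hours, by enzymatic kits; percent inhibition calculated relative to vehicle control and untreated normal groups.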

esterase = assay: Esterase inhibiting activity; assay type: biochemical; settings: rat liver microsome esterase, methyl butyrate substrate, pH 8.0, 37° C., 60 minutes; read-out: IC50 for esterases
Protocol: A 10 micromole quantity of methyl butyrate in a 50% ethanol solution is added as a substrate to a specified amount of buffer solution containing 0.1 mole of trishydrochloric acid (pH 8.0). To the mixture is further added a 50% ethanol solution of the compound of the invention, immediately followed by addition of an esterase solution prepared from a purified microsome fraction of the liver of a rat (adjusted to hydrolyze 9 micromoles of methyl butyrate at 37° C. in one hour) as an enzyme solution. The mixture is reacted at 37° C. for 60 minutes.
After the reaction, alkaline hydroxylamine is added to the mixture to form a hydroxamic acid derivative of methyl butyrate, and a ferric salt is added to the derivative. The resulting red color is colorimetrically determined (at a wavelength of 540 nm) to determine the amount of remaining methyl butyrate. The esterase inhibiting ratios of the present compound at least at three concentrations are plotted as ordinate, and the logarithms of the concentrations as abscissa to obtain a line, which gives the 50% inhibition concentration (IC50).

Acute toxicity = settings: rat, in vivo
Source text: Six-week-old male Wistar rats weighing 180 to 200 g are used, 5 rats in each group. Each compound of the invention is suspended in a 30% aqueous solution of polyethylene glycol 6000 and orally given to the rat at the dosage shown in Table 2. The animals are checked for poisoning, body weight and survival to determine the LD50 value.

cholesterol = assay: Antilipemic effect: percent total cholesterol inhibition in plasma of rats given an olive oil-cholesterol mixture; assay type: in vivo, male Wistar rats; settings: for inhibition in vivo at 100 mg/kg: read-out: Anti-lipemic effect, CS (percent cholesterol inhibition)
Procedure, shortened: as §1

[1] = oral 100 mg/kg, plasma 2 hours after dosing, Wistar rat
[2] = oral 100 mg/kg, plasma 8 hours after dosing, Wistar rat
[3] = oral, six-week-old male Wistar rats, suspended in 30% aqueous polyethylene glycol 6000, read-out: LD50
[4] = plasma 2 hours after dosing, Wistar rat

SMILES	inhibition at 100 µM (chymotripsin)	pIC50 (esterase)	LD50 (Acute toxicity; po)	further results
Cc1ccc(S(=O)(=O)OCC(=O)CCC2CCCCC2)cc1 [Compound 167]	100%	5.51	–	TG (percent triglycerides inhibition), Table 3 (triglycerides): 53%
CCCC(C)CC(=O)COS(=O)(=O)c1c(C)cc(C)cc1C (stereo not drawn) [Compound 158]	17%	6.40	> 4000 mg/kg	inhibition in vivo at 100 mg/kg (triglycerides; [1]): 74%; inhibition in vivo at 100 mg/kg (cholesterol; [2]): 70%
Cc1ccc(S(=O)(=O)OCC(=O)CCc2ccccc2)cc1 [Compound 187]	100%	4.85	–	TG (percent triglycerides inhibition), Table 3 (triglycerides): 94%
CCCC(=O)COS(=O)(=O)c1c(C)cc(C)cc1C [Compound 73, 2-oxopentyl-2,4,6-trimethylbenzenesulfonate]	13%	6.00	–	inhibition in vivo at 100 mg/kg (triglycerides; [1]): 92%; LD50 (Acute toxicity; [3]): > 3000 mg/kg; inhibition in vivo at 100 mg/kg (cholesterol; [2]): 90%
O=C(CCCCl)COS(=O)(=O)c1ccccc1 [Compound 193, 2-oxo-5-chloro-n-pentyl-benzene sulfonate]	46.8%	6.09	–	–
Cc1ccc(S(=O)(=O)OCC(=O)CCCCCCC(C)C)cc1 [Compound 27]	17%	6.17	> 3000 mg/kg	inhibition in vivo at 200 mg/kg (triglycerides; [4]): 59%
CCCC(=O)COS(=O)(=O)c1ccc2ccccc2c1 [Compound 5]	17%	5.44	> 2500 mg/kg	inhibition in vivo at 100 mg/kg (triglycerides; [1]): 86%; inhibition in vivo at 100 mg/kg (cholesterol; [2]): 73%
CCOc1ccc(S(=O)(=O)OCC(=O)CCC(C)CC)cc1 (stereo not drawn) [Compound 143]	79%	5.70	> 4000 mg/kg	inhibition in vivo at 200 mg/kg (triglycerides; [4]): 62%
C=CCCC(=O)COS(=O)(=O)c1ccccc1 [Compound 14]	25%	6.28	> 2000 mg/kg	inhibition in vivo at 100 mg/kg (triglycerides; [1]): 92%; inhibition in vivo at 100 mg/kg (cholesterol; [2]): 62%
Cc1cc(C)c(S(=O)(=O)OCC(=O)C2CCCCC2)c(C)c1 [Compound 176]	–	6.10	–	–
CCC(C)CC(=O)COS(=O)(=O)c1c(C)cc(C)cc1C (stereo not drawn) [Compound 153]	9%	6.19	> 4000 mg/kg	inhibition in vivo at 100 mg/kg (triglycerides; [1]): 82%; inhibition in vivo at 100 mg/kg (cholesterol; [2]): 83%
CCCCCCCCC(=O)COS(=O)(=O)c1c(C)cc(C)cc1C [Compound 78]	72%	9.20	> 4000 mg/kg	inhibition in vivo at 100 mg/kg (triglycerides; [1]): 56%; inhibition in vivo at 100 mg/kg (cholesterol; [2]): 61%
CCOc1ccc(S(=O)(=O)OCC(=O)CCC(C)C)cc1 [Compound 138]	67%	5.38	> 2000 mg/kg	inhibition in vivo at 100 mg/kg (triglycerides; [1]): 95%; inhibition in vivo at 100 mg/kg (cholesterol; [2]): 90%
CCCCCCCC(=O)COS(=O)(=O)c1ccc(OCCCC)cc1 [Compound 56]	50%	6.00	> 3000 mg/kg	inhibition in vivo at 200 mg/kg (triglycerides; [4]): 64%; Anti-lipemic effect, CS (percent cholesterol inhibition), asterisked (cholesterol; oral 200 mg/kg (asterisked values), plasma 8 hours after dosing, Wistar rat): 42%
CCCCCCC(=O)COS(=O)(=O)c1ccccc1C [Compound 31]	100%	7.77	> 2000 mg/kg	inhibition in vivo at 100 mg/kg (triglycerides; [1]): 61%; inhibition in vivo at 100 mg/kg (cholesterol; [2]): 31%
C=CCCC(=O)COS(=O)(=O)c1c(C)cc(C)cc1C [Compound 86]	14%	6.92	> 3000 mg/kg	inhibition in vivo at 100 mg/kg (triglycerides; [1]): 79%; inhibition in vivo at 100 mg/kg (cholesterol; [2]): 66%
Cc1cc(C)c(S(=O)(=O)OCC(=O)CC2CCCCC2)c(C)c1 [Compound 177]	10%	6.70	–	–
CCCCCCCCCC(=O)COS(=O)(=O)c1ccccc1 [Compound 10]	14%	8.12	–	inhibition in vivo at 100 mg/kg (triglycerides; Rattus norvegicus, po, 2 h): 80%; LD50 (Acute toxicity; [3]): > 3000 mg/kg; inhibition in vivo at 100 mg/kg (cholesterol; Rattus norvegicus, po, 8 h): 61%
CCCC(=O)COS(=O)(=O)CC [Compound 1, 2-oxopentylethane sulfonate]	–	4.92	–	inhibition in vivo at 100 mg/kg (triglycerides; [1]): 92%; LD50 (Acute toxicity; [3]): > 1000 mg/kg; inhibition in vivo at 100 mg/kg (cholesterol; [2]): 89%
O=C(CCc1ccccc1)COS(=O)(=O)c1ccc(Cl)cc1 [Compound 188]	100%	4.60	–	TG (percent triglycerides inhibition), Table 3 (triglycerides): 95%

SMILES	inhibition at 100 µM (chymotripsin)	pIC50 (esterase)	LD50 (Acute toxicity; po)	further results
C=CCCCCCCCCC(=O)COS(=O)(=O)c1c(C)cc(C)c(C)c1C [Compound 101]	23%	7.52	> 4000 mg/kg	inhibition in vivo at 200 mg/kg (triglycerides; [4]): 54%
Cc1ccc(S(=O)(=O)OCC(=O)CC2CCCC2)cc1 [Compound 165]	90%	5.36	–	–
COCCCC(=O)COS(=O)(=O)c1ccccc1 [Compound 194]	3.2%	5.62	–	–
O=C(CCC1CCCCC1)COS(=O)(=O)c1ccccc1 [Compound 164, 2-oxo-4-cyclohexyl-butylbenzenesulfonate]	100%	5.66	–	TG (percent triglycerides inhibition), Table 3 (triglycerides): 98%
CCCCCCCCCC(=O)COS(=O)(=O)c1ccc(OC)cc1 [Compound 38]	45%	7.00	> 4000 mg/kg	inhibition in vivo at 200 mg/kg (triglycerides; [4]): 67%
CCCCCCCCCCC(=O)COS(=O)(=O)c1c(C)cc(C)cc1C [Compound 80]	55%	10.49	> 4000 mg/kg	inhibition in vivo at 200 mg/kg (triglycerides; [4]): 63%
C=CCCCCCCCCC(=O)COS(=O)(=O)c1ccc(C)cc1 [Compound 28]	15%	6.64	> 3000 mg/kg	inhibition in vivo at 200 mg/kg (triglycerides; [4]): 61%
COCCCC(=O)COS(=O)(=O)c1c(C)cc(C)cc1C [Compound 205]	10%	5.82	–	–
O=C(CCCCCNC(=O)OCc1ccccc1)COS(=O)(=O)c1ccccc1 [Compound 197]	47%	4.52	–	–
O=C(COS(=O)(=O)c1ccc(O)cc1)CC1CCCCC1 [Compound 169]	–	6.10	–	–
O=C(COS(=O)(=O)c1ccc(Cl)cc1)C1CCCCC1 [Compound 179]	32%	5.82	–	–
CCCCCCCCCCCC(=O)COS(=O)(=O)c1ccc(O)cc1 [Compound 62]	93%	7.54	> 3000 mg/kg	inhibition in vivo at 200 mg/kg (triglycerides; [4]): 72%
CC(=O)OCCCC(=O)COS(=O)(=O)c1ccccc1 [Compound 195]	22.2%	4.59	–	TG (percent triglycerides inhibition), Table 3 (triglycerides): 62%
CCOc1ccc(S(=O)(=O)OCC(=O)CCCC(=O)OC)cc1 [Compound 201, 2-oxo-5-methoxycarbonyl-n-pentyl-p-ethoxybenzene sulfonate]	33%	3.77	–	–
Cc1cc(C)c(S(=O)(=O)OCC(=O)C2CCOCC2)c(C)c1 [Compound 186]	–	4.49	–	–
CCCCCC(=O)COS(=O)(=O)c1c(C)c(C)cc(C)c1C [Compound 90]	13%	8.59	> 3000 mg/kg	inhibition in vivo at 200 mg/kg (triglycerides; [4]): 59%
O=C(COS(=O)(=O)c1ccccc1)C1CCCCC1 [Compound 163]	13%	5.80	–	–
CCCCCC(=O)COS(=O)(=O)c1ccc(Cl)cc1 [Compound 66]	100%	5.59	–	inhibition in vivo at 100 mg/kg (triglycerides; [1]): 88%
COC(=O)CCCC(=O)COS(=O)(=O)c1ccccc1 [Compound 196]	65.3%	5.17	–	TG (percent triglycerides inhibition), Table 3 (triglycerides): 77.9%
Cc1ccc(S(=O)(=O)OCC(=O)CC2CCCCC2)cc1 [Compound 166]	98%	5.46	–	–
